# Data from patent US8188074B2 (priority 2001, dated 2012).
# Where two headings read alike, the source gives them in different places.
# Legend:
# C. albicans = test: Photoinactivation of C. albicans; format: cell-based, Candida albicans; settings: 10 μM; laser light at 0.1 W
# Description: (§1) Cell inactivation was then measured.
# S. aureus = settings: 10 μM, laser light (665 nm) 0.1 W
# Description: (§2) Stock solutions of the photosensitisers were made up to 5 mM in dimethylsulfoxide (DMSO). The 5 mM stock was further diluted in DMSO to a working concentration of 1 mM. All photosensitisers were stored in foil covered vials at room temperature until required.
# (§3) The microorganisms were grown until in the mid-logarithmic phase and then harvested and resuspended.
# (§4) The log or stationary phase cells were collected by centrifugation and washed twice in 0.1 M potassium phosphate buffer (pH 7.0). Following washing, the cells were resuspended in the same buffer to an absorbance of 0.87 at 650 nm.
# (§5) 25 ml of the prepared cell suspension was incubated with 0.25 mls of a 1 mM stock solution of photosensitiser (giving a final concentration of 10 μM) in a 250 ml sterile foil covered conical flask. The suspension was incubated for 30 minutes in the dark in a 37° C. shaking incubator at 250 rpm.
# (§6) After incubation with 10 μM phenothiazinium compound, 10 ml of the bacterial culture was aseptically transferred to a sterile cell. This consisted of a sealed vial with a sealed capillary tube inserted, into which the optical fibre could be placed. […]
# (§7) 50 ml of the illuminated and non-illuminated samples of the suspension were removed and diluted in 0.1 M pH 7.0 potassium phosphate buffer. […] Cell inactivation was then measured.
# E. coli [1] = test: Photoinactivation of E. coli; format: cell-based; settings: for log change in CFU/ml / percentage cell survival / log change CFU/ml: E. coli; for log change CFU/ml: laser light
# Description: as §1
# E. coli [2] = tested on: E. coli
# P. aeruginosa = test: Photoinactivation of P. aeruginosa; settings: 10 μM, laser light (665 nm) 0.1 W
# Description: as §2, §3, §4, §5, §6, §7
# [3] = Octanol-buffer partition coefficient
# From the text: The octanol buffer partition coefficient (p) determines the lipophilicity of the drug.
# [4] = tested on: RIF-1 murine fibrosarcoma cells; test: Cellular uptake in RIF-1 cells; format: cell-based; settings: 2 h incubation, solubilised in 2% SDS, fluorescence
# [5] = patients after administration; cited from earlier work
# [6] = 30 min with 10 μM, halogen lamp 60 minutes at 1.3 mW/cm^2
# [7] = octanol-buffer partition coefficient
molecule,measurement,setting,value
"3,7-(tetra-n-butylamino)-phenothiazin-5-ium [Compound 2]","killing of Candida albicans in the light, FIG. 16",C. albicans,readily destroyed
same,bacteria inactivated,S. aureus; 1 minute,~99%
same,cell kill,S. aureus; 10 minutes,~5 logs
same,"log change in CFU/ml of washed versus unwashed E. coli cells, FIG. 10","E. coli [1]; 10 μM, washed twice, laser light (665 nm) 0.1 W for 4 minutes",little difference
same,log change in CFU/ml,E. coli [1]; [6],5.1 log10
same,percentage cell survival,E. coli [1]; [6],0.001%
same,log change in CFU/ml,"E. coli [1]; 30 min with 10 μM, illuminated 15 minutes at 1.3 mW/cm^2",4.59 log10 units
same,log change in CFU/ml,"E. coli [1]; 30 min with 50 μM, illuminated 15 minutes at 1.3 mW/cm^2",2.15 units
same,log change CFU/ml,E. coli [1]; 14 minute illumination at 0.1 W,5.69 log
same,log change CFU/ml,"E. coli [1]; 20 minute illumination at 0.1 W, number of CFU too small to be statistically reliable",~8.5 units
same,"antibacterial activity, E. coli resuspended in nutrient medium, FIG. 7","E. coli [1]; nutrient medium, 10 μM, 60 minutes at 1.3 mW/cm^2",highest antibacterial activity
same,"growth of an E. coli culture in the dark compared to control, FIG. 11","E. coli [2]; 10 μM in growth media, dark, 37° C., 6 hours, turbidity at 550 nm",greatest inhibition
same,"growth of E. coli after addition of photosensitiser at 3 hours, in the dark, FIG. 12","E. coli [2]; 10 μM, dark",continuing growth
same,"growth of E. coli after addition of photosensitiser at 3 hours, in the light, FIG. 12","E. coli [2]; 10 μM, light",complete elimination of growth
same,cell kill,P. aeruginosa; 2 minutes,greater than 99%
same,cell kill,P. aeruginosa; 10 minutes,~4 logs
"3-(N,N-diethanolamino)-7-(N,N-dipentylamino)-phenothiazin-5-ium iodide [Compound 28]",Log P,[3],+1.1
CCCCCCN(CCCCCC)c1ccc2nc3ccc(N(CCCCCC)CCCCCC)cc3[s+]c2c1.[Br-] [Compound 4],Log P,[3]; [7],+1.3
same,Uptake at PDT LD50,[4],1.6 nmol/mg protein
same,log change in CFU/ml,E. coli [1]; [6],0.19 log10
same,percentage cell survival,E. coli [1]; [6],65.3%
"CCN(CC)c1ccc2nc3ccc(N(CC)CC)cc3[s+]c2c1.[Cl-] [Compound 6, ethylene blue, reference compound]",Log P,[3]; [7],+0.2
same,Uptake at PDT LD50,[4],2.9 nmol/mg protein
CCCCN(CCCC)c1ccc2nc3ccc(N4CCOCC4)cc3[s+]c2c1.[I-] [Compound 24],Log P,[3]; [7],+1.0
Oc1cccc(-c2c3nc(c(-c4cccc(O)c4)c4ccc([nH]4)c(-c4cccc(O)c4)c4nc(c(-c5cccc(O)c5)c5ccc2[nH]5)CC4)C=C3)c1 [Foscan],period of sensitivity to light,[5],approximately 15 days
